Measured values from article PMC13293952 (Cell Reports Medicine, 2026).

Assays:
CFA mice = test: CFA model of inflammatory pain, von Frey paw withdrawal threshold; format: in vivo, mouse; settings: 3 mg/kg s.c. on days 11 and 40 after CFA, AAV8-tdTomato controls
PICK1 = PICK1 (Rattus norvegicus, UniProt Q9EP80); test: FPLC; format: biochemical; settings: FPLC Superdex 200, PICK1 40 µM, molar ratio 1:4 or 1:2, >=20 h at 4°C, A280
PICK1, sequence (Q9EP80 whole entry): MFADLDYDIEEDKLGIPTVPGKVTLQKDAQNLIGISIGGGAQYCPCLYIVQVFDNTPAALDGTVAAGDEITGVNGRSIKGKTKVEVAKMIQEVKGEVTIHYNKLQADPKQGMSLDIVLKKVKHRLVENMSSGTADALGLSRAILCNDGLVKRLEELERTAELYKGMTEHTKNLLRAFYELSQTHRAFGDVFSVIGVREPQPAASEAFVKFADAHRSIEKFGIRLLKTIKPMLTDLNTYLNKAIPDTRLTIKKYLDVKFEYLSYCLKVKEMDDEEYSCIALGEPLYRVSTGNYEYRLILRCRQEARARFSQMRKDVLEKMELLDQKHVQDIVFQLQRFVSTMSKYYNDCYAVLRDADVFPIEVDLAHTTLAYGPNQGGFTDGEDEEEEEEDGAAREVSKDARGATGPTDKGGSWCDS

| Compound | reinstatement of allodynia (CFA mice) | PICK1 oligomerization (PICK1) |
| --- | --- | --- |
| O=C1CC[C@@]2(O)[C@H]3Cc4ccc(O)c5c4[C@@]2(CCN3CC2CC2)[C@H]1O5 [NTX, naltrexone] | selectively reinstated allodynia in this group |  |
| biotin-ahx-GEELLEDIRKFNEMRKNMDQLKEKINSVLSIRQGGGGS-HWLKV [SSO10a-C5] |  | drove PICK1 oligomerization |
